Patent publication US20090048112A1, “Novel Herbicides” (SYNGENTA LIMITED, priority 2005, published 2009)

Tested on: Monocotyledonous and dicotyledonous test plants
Assay: Example B3: herbicidal action prior to emergence (pre-emergence), 96-cell seed trays, 1000 g/ha
Assay type: in vivo
Design: key: 0 is no damage to plant; 5 is total damage to plant
Settings: 9 days after application; for AGSTE herbicidal effect (visual assessment, scale 0-5): Agrostis tenius (Colonial bentgrass); for AMARE herbicidal effect (visual assessment, scale 0-5): Amaranthus retroflexus (redroot pigweed); for DIGSA herbicidal effect (visual assessment, scale 0-5): Digitaria sanguinalis (hairy finger-grass); for POATR herbicidal effect (visual assessment, scale 0-5): Poa trivialis (rough blue grass); for SETIT herbicidal effect (visual assessment, scale 0-5): Setaria italica (foxtail millet)
Description: Monocotyledonous and dicotyledonous test plants were sown in sterilised standard soil in seed trays each with 96 cells. The seed trays were stored under controlled conditions in a climatic chamber for one day (cultivation at 23° C. during the day and 17° C. at night; 13 hours of light; 50-60% humidity). The chemicals were applied to the soil surface. The application was carried out with an aqueous suspension of the test substances, prepared as a formulation in water with 10% dimethyl sulfoxide (CAS RN 67-68-5), to achieve a field equivalent of 1000 l/ha. The application rate of the test substances was 1000 g/ha. The plants were grown on in the climatic chamber for 9 days (cultivation at 24° C. during the day and 19° C. at night; 13 hours of light; 50-60% humidity). A visual assessment of the herbicidal effect was made at 9 days after application. The following scale was used for assessment: 0, 1, 2, 3, 4 and 5 (where 0 is no damage to plant and 5 is total damage to plant).

SMILES	AGSTE herbicidal effect (visual assessment, scale 0-5)	AMARE herbicidal effect (visual assessment, scale 0-5)	DIGSA herbicidal effect (visual assessment, scale 0-5)	POATR herbicidal effect (visual assessment, scale 0-5)	SETIT herbicidal effect (visual assessment, scale 0-5)
CC(CF)Oc1c(CS(=O)(=O)c2ncc(Cl)s2)c(C(F)(F)F)nn1C (racemic) [Compound 1.133]	5	5	5	5	5
Cn1cc(CS(=O)(=O)c2ncc(Cl)s2)c(C(F)(F)F)n1 [Compound 1.107]	0	3	5	0	3
CCS(=O)(=O)c1c(CS(=O)(=O)c2ncc(Cl)s2)c(C(F)(F)F)nn1C [Compound No. 1.081]	5	5	0	0	4
Cn1nc(C(F)(F)F)c(C[S+]([O-])c2ncc(Cl)s2)c1OC(CF)CF (racemic) [Compound 1.113]	5	5	5	4	5
CCSc1c(CS(=O)(=O)c2ncc(Cl)s2)c(C(F)(F)F)nn1C [Compound No. 1.077, 5-chloro-2-(5-ethylsulfanyl-1-methyl-3-trifluoromethyl-1H-pyrazole-4-ylmethanesulfonyl)-thiazole]	5	3	5	5	4
Cn1nc(C(F)(F)F)c(C[S+]([O-])c2ncc(Cl)s2)c1[S+](C)[O-] (single isomer, unassigned) [Compound No. 1.091]	5	4	4	0	4
CC(Oc1c(CSc2ncc(Cl)s2)c(C(F)(F)F)nn1C)C(F)(F)F (racemic) [Compound No. 1.126]	4	4	5	1	4
Cn1nc(C(F)(F)F)c(CS(=O)(=O)c2ncc(Cl)s2)c1OCCCF [Compound 1.104]	5	5	5	5	5
CSc1c(C[S+]([O-])c2ncc(Cl)s2)c(C(F)(F)F)nn1C (racemic) [Compound No. 1.089]	5	5	5	5	5
Cn1nc(C(F)(F)F)c(C[S+]([O-])c2ncc(Cl)s2)c1[S+](C)[O-] (single isomer, unassigned) [Compound No. 1.090]	5	3	5	4	5
Cn1cc(C(F)S(=O)(=O)c2ncc(Cl)s2)c(C(F)(F)F)n1 (stereo not shown) [Compound No. 1.110, 5-chloro-2-[fluoro-(1-methyl-3-trifluoromethyl-1H-pyrazol-4-yl)-methanesulfonyl]-thiazole]	0	4	4	4	5
CC[S+]([O-])c1c(C[S+]([O-])c2ncc(Cl)s2)c(C(F)(F)F)nn1C (mixture of isomers) [Compound No. 1.078]	5	4	5	5	5
CC(Oc1c(C[S+]([O-])c2ncc(Cl)s2)c(C(F)(F)F)nn1C)C(F)(F)F (mixture of isomers) [Compound 1.127]	5	5	5	5	5
CCS(=O)(=O)c1c(C[S+]([O-])c2ncc(Cl)s2)c(C(F)(F)F)nn1C (racemic) [1.080]	5	4	5	5	5
Cn1nc(C(F)(F)F)c(CS(=O)(=O)c2ncc(Cl)s2)c1OC(CF)CF [Compound 1.114]	5	5	5	5	5
Cn1nc(C(F)(F)F)c(C[S+]([O-])c2ncc(Cl)s2)c1S(C)(=O)=O (racemic) [Compound No. 1.092]	5	3	5	3	4
Cn1nc(C(F)(F)F)c(C[S+]([O-])c2ncc(C(F)F)s2)c1OCC(F)(F)F (racemic) [Compound 1.086]	5	5	5	5	4
Cn1nc(C(F)(F)F)c(CS(=O)(=O)c2ncc(Cl)s2)c1S(C)(=O)=O [Compound No. 1.093]	5	4	5	5	3
Cn1nc(C(F)(F)F)c(CSc2ncc(Cl)s2)c1OCCCF [Compound No. 1.102]	5	2	4	0	2
CC(Oc1c(CS(=O)(=O)c2ncc(Cl)s2)c(C(F)(F)F)nn1C)C(F)(F)F (racemic) [Compound 1.130]	5	5	5	5	5
